Measured values taken from patent US6203817A (priority 1998, dated 2001).

Experiments:
[1] = Critical micelle concentration (CMC) in water; format: physicochemical
Text: According to this embodiment, the salt form is selected by measuring its CMC in water by methods known in the art, for example, by the use of a surface tensiometer. […] The CMC provides a measure of the surface activity of the particular drug salt.

[2] = test system: skin of hairless guinea pigs; test: Urinary excretion kinetics / skin depot of fluoxetine; format: in vivo, hairless guinea pig
Text: (§1) Skin sites on hairless guinea pigs were lightly washed.

[3] = cited from earlier work
[4] = test system: skin of hairless guinea pigs; test: Paroxetine gels skin irritation at equivalent flux; format: in vivo, hairless guinea pig; conditions: FIG. 8
Text: as §1
All paroxetine gels contained paroxetine base, 40% ethanol, 35% propylene glycol, water, and 5% HPMC. Placebo gels were identical with water replacing the paroxetine. Paroxetine acetate gels contained paroxetine base, acetic acid, water, and 2% HEC. […] All paroxetine gels contained approximately 28 μCi ^3 H paroxetine per ml.

SMILES: CN(C)CCCN1c2ccccc2Sc2ccc(Cl)cc21 [chlorpromazine acetate]
- CMC [1]: 0.02 M

SMILES: CNCCC(Oc1ccc(C(F)(F)F)cc1)c1ccccc1 (centres unmarked) [fluoxetine acetate]
- skin depot (urinary excretion) ([2]; acidified with excess acetic acid to pH 5): the skin depot is eliminated
- kinetics of elimination (urinary excretion) ([2]; acidified with excess acetic acid to pH 5, compared with intravenous administration): close to that observed following intravenous administration of the drug
- skin depot (urinary excretion) ([2]; fluoxetine acetate, pH 6.5): the skin depot is reduced but is still present
- CMC [1]: 0.05 M

SMILES: CNCCC(Oc1ccc(C(F)(F)F)cc1)c1ccccc1 (centres unmarked) [fluoxetine base, fluoxetine]
- skin depot (urinary excretion) ([2]; fluoxetine base): a skin depot is observed
- pKa [3]: 9.7

SMILES: Fc1ccc([C@@H]2CCNC[C@H]2COc2ccc3c(c2)OCO3)cc1 [paroxetine acetate]
- irritation vs paroxetine base gels at equivalent flux [4]: reduced
